Measurements published in BigSolDB 2.1.

CC[C@H](/C=C/[C@@H](C)[C@H]1CC[C@H]2[C@@H]3CC=C4C[C@@H](OC(=O)/C=C\C(=O)O)CC[C@]4(C)[C@H]3CC[C@]12C)C(C)C
Conditions	solubility (mole fraction)
in acetone, 293.15 K	0.000383
in acetone, 296.65 K	0.000431
in acetone, 303.65 K	0.000535
in acetone, 317.15 K	0.000785
in acetone, 325.65 K	0.00102
in ethyl acetate, 288.15 K	0.00146
in ethyl acetate, 293.25 K	0.00179
in ethyl acetate, 298.15 K	0.00202
in ethyl acetate, 302.65 K	0.0028
in ethyl acetate, 308.65 K	0.00395
in ethyl acetate, 312.65 K	0.00438
in ethyl acetate, 317.35 K	0.0053
